Literature values in paper PMC10006169, “A phase I trial of LXS196, a protein kinase C (PKC) inhibitor, for metastatic uveal melanoma” (British Journal of Cancer, 2023).

What was measured:
[1] = tested on: UM cell lines containing mutant GNAQ or GNA11; details: cited from earlier work
92.1 human UM xenograft = tested on: 92.1 human UM xenograft; parameters: method as in PMID 27507190; details: doses below MTD; cited from earlier work
patients with MUM = tested on: patients with MUM; parameters: method as in PMID 32029634; details: cited from earlier work
[2] = tested on: HLA-A*02:01-positive patients with first-line MUM; parameters: method as in PMID 34551229; details: cited from earlier work

Compound	Sensitivity of UM cell lines carrying Gα subunit mutations [1]	Tumour effect as single agent (92.1 human UM xenograft)	Estimated median PFS (patients with MUM; 95% CI: 2.5–3.6) [months]	ORR (patients with MUM; across all doses) [%]	Dose-limiting toxicities (patients with MUM)	Median duration of SD (patients with MUM) [months]	Stable disease (SD) as best response (patients with MUM) [%]	Hazard ratio (OS vs Investigator's choice) ([2]; 95% CI: 0.37–0.71)	1-year OS rate ([2]; control group 59%) [%]
CN1CCN(c2nc(C3=C(c4c[nH]c5ccccc45)C(=O)NC3=O)c3ccccc3n2)CC1 [AEB071, 3-(1H-Indol-3-yl)-4-[2-(4-methylpiperazin-1-yl)quinazolin-4-yl]pyrrole-2,5-dione]	selective sensitivity	stasis	3.5	3	increased frequency of dose-limiting gastrointestinal (GI) toxicities associated with increasing dose	3.75	50		
tebentafusp: bispecific fusion protein (Immunocore) designed to redirect T cells to gp100-positive cells								0.51	73
